Assay results taken from article PMC4321377, “Multiple signals modulate the activity of the complex sensor kinase TodS” (Microbial Biotechnology, 2014).

Target: T1, TodS (Pseudomonas putida, UniProt E0X9C7)
T1 construct: full-length TodS, N-terminal His tag
Test: autophosphorylation assay with [γ-32P]ATP of purified TodS; ITC showed an exothermic chemical reaction
Assay type: biochemical

T1 sequence (E0X9C7 whole entry): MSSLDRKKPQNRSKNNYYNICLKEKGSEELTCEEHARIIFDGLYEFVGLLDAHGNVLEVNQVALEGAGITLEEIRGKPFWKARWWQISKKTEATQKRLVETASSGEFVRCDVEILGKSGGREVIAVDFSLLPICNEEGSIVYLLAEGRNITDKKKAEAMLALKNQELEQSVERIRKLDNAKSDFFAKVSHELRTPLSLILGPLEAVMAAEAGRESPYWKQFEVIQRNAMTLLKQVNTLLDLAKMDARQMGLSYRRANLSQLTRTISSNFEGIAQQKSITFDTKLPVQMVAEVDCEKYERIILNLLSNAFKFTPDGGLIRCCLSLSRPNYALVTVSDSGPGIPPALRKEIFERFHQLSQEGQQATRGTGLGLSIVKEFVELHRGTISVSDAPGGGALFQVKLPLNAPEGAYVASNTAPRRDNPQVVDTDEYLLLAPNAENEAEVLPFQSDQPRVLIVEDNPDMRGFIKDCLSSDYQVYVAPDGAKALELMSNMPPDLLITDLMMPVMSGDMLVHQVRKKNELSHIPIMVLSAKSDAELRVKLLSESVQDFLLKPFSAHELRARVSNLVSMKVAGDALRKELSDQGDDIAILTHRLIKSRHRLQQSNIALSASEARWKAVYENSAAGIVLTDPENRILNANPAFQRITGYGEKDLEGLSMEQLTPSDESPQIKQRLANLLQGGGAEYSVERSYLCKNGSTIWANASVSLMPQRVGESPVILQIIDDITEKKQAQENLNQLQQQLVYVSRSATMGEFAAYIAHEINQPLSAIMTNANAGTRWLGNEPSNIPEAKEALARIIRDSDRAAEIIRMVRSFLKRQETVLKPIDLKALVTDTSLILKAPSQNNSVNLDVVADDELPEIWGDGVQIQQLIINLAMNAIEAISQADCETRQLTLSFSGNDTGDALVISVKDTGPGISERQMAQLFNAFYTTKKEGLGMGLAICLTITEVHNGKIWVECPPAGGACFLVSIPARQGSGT

## CC1=CC(=O)c2ccccc2C1=O [menadione, 2-methyl-l,4-naphthoquinone]
  EC50: 170 ± 25 µM
